This note sets out measurements from US9526915B2, “Methods for regulating cell mitosis by inhibiting serine/threonine phosphatase” (priority 2008, dated 2016).

One experiment concerns U87MG cells. As to the kind of experiment: Cell cycle distribution of U87MG cells by FACS. In kind it is cell-based, human. The conditions noted are these: 48 hours. The protocol: (§1) Cells in unsynchronized logarithmic growth were exposed to vehicle or drug and adherent cells and cells in the media were collected. Harvested cells were fixed with 70% cold ethanol for 20 min at −20 degrees, washed with PBS, and stained with 10 ug/ml of PI and 1 ug/ml RNAse in TBS for 30 minutes and analyzed by FACS. A, Flow cytometry profiles of U87 cells after exposures to DMSO only, compound 102 only, 5 uM; TMZ only, 25 uM; compound 102 with TMZ combination, doxorubicin only, 2.0 uM and compound 102 with doxorubicin combination. B, Flow cytometry profiles of U373 cells. Exposures as in A, and C, Schema of proposed mechanisms of compound 102 enhancement of cancer chemotherapy.
(§2) We analyzed cell cycle patterns of U87MG and U373 cells 48 hours after exposure to TMZ or DOX alone and in combination with compound 102.
(In general: In flow cytometry, cells or beads pass a laser one at a time.)

The next experiment relates to U87 cells. The experiment in a line: U87 GBM cell growth in vitro, viable cells counted. In kind it is cell-based. The following applies: Homo sapiens, U-87 MG, read-out: IC50 inhibition of GBM cell growth. The protocol:
FIG. 6: Effect of Compound 102 on U87 Cells In Vitro at 1 uM; 2 uM; 5 uM; and 10 uM.
Viable cells were counted (mean and s.d.; n=3; Coulter particle counter).
Recent work led to the discovery that treatment with the compound, compound 100, and several homologs inhibit the serine/threonine protein phosphatases PP2A (FIG. 1). Compound 102 inhibits PP2A (IC50=˜0.4 μM) more potently than PP1 (IC50=˜80 μM) (FIG. 2). Associated with their inhibition of PP2A, Compound 100 and homologs inhibit a variety of human cancer cell types growing in cell culture and growing in vivo as xenografts implanted subcutaneously in SCID mice (FIG. 3 and FIG. 4). […] Death of these cancer cells is associated with profound disruption of microtubular structures. Such patterns of disordered microtubules during mitosis have been noted after exposure of cancer cells to spindle toxins include such vincristine, vinblastine, taxol, taxotere, ionizing radiation, and DNA damaging agents including anthracyclines and the platinum based compounds. The morphologic appearance of cells displaying these characteristics has been called the mitotic catastrophe phenotype (Castedo et al 2004).

The test system of the next experiment is U373 cells. As to the kind of experiment: Cell cycle distribution of U373 cells by FACS. The following applies: U373, 48 hours. In kind it is cell-based, human. The protocol: as §1, §2
The next experiment has as its target PP2A (Homo sapiens, UniProt P67775). As to the kind of experiment: PP2A activity in DAOY cells (immunoprecipitated PP2A/Akt-1 complexes, Malachite Green assay). It counts as cell-based. On the set-up: PP2A activity from the immunoprecipitated complexes was assayed; endogenous in cells; host or cells: DAOY cells. The following applies: 0.15, 0.25, 0.3 μM, 1 hour. The protocol:
Cultured DAOY cells were plated in […] flasks. When the cells were 80% confluent, the media was replaced with media containing either 0.15 μM Compound 102, 0.25 μM Compound 102, 0.3 μM Compound 102, or an equivalent volume of PBS vehicle. After 1 hour, the cells were washed three times in a 0.9% normal saline solution. T-PER solution was added to the cells, and cells were prepared for protein extraction. Lysates from each treatment group containing 300 μg of protein were applied to a spin column (Catch and Release v2.0 Reversible Immunoprecipitation System, Millipore, Billerica, Mass.) for immunoprecipitation of PP2A/Akt-1 kinase protein complexes using polyclonal anti-rabbit Akt-1 antibody (Cell Signaling Technology, Danvers, Mass.). PP2A activity from the immunoprecipitated complexes was assayed using a Malachite Green Phosphatase Assay specific for serine/threonine phosphatase activity (Ser/Thr Phosphatase Assay Kit 1, Millipore, Billerica, Mass.).

Where [1] appears, read: compound 102 5 uM, TMZ 25 uM, doxorubicin 2.0 uM.

pIC50: −log10 of the molar value.

PP2A, sequence (P67775 whole entry): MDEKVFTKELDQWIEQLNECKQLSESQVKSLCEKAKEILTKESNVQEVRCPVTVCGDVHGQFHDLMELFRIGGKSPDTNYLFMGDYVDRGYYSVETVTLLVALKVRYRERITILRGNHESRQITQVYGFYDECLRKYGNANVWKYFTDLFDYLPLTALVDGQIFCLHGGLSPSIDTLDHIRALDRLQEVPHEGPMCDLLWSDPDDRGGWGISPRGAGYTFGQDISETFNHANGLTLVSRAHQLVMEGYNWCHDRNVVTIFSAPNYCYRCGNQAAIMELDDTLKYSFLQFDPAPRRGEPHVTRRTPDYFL
PP2A, sequence (P30153 2-589 partner limits assumed): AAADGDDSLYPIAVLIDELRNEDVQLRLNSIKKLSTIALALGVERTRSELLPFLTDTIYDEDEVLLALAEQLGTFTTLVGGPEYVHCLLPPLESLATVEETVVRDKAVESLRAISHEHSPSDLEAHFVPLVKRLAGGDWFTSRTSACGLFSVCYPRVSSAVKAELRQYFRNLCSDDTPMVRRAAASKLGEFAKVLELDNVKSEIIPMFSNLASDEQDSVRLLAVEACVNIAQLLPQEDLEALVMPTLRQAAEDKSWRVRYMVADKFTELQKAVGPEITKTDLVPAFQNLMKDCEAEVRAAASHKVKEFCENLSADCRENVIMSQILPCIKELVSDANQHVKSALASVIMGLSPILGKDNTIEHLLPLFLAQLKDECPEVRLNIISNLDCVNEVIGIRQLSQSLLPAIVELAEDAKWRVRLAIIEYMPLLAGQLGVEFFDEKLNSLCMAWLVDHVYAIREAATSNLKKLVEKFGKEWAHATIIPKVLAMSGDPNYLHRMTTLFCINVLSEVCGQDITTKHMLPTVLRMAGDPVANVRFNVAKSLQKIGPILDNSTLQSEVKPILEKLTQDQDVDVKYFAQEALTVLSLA

As usually defined, the pIC50 is the IC50 on a negative log10 scale, so that one unit is a factor of ten. Turning to `CC(C)(C)OC(=O)N1CCN(C(=O)C2C(C(=O)O)[C@H]3CC[C@@H]2O3)CC1` (some centres unmarked) [Compound 102], the G1 phase cells result in the experiment with U87MG cells (setting [1]) was “decreased”; with U373 cells (setting [1]), “no effect”. Further, the G2/M phase cells entry with U87MG cells (same concentrations) was “prominently increased”; in the experiment on U373 cells (same concentrations), “no effect”. The S phase cells result is “modestly increased” in the experiment with U87MG cells (same concentrations) and “no effect” in the experiment with U373 cells (same concentrations). The pIC50 in the experiment on U87 cells was roughly 5.40. In addition, the “PP2A activity in DAOY cell line” value at PP2A is on record as “Inhibition”.
